Key:
Assay in all cases: Test D pre-/postemergence herbicide test
kochia = type: in vivo, Kochia scoparia; details: for Plant response rating: Kochia, scale 0 to 100; for Plant response rating, Kochia: scale 0 to 100 (0 no effect, 100 complete control)
Description: (§1) Seeds of plant species selected from bluegrass (annual bluegrass, Poa annua), blackgrass (Alopecurus myosuroides), canarygrass (littleseed canarygrass, Phalaris minor), chickweed (common chickweed, Stellaria media), galium (catchweed bedstraw, Galium aparine), bromegrass, downy (downy bromegrass, Bromus tectorum), field poppy (Papaver rhoeas), field violet (Viola arvensis), foxtail, green (green foxtail, Setaria viridis), deadnettle (henbit deadnettle, Lamium amplexicaule), ryegrass, Italian (Italian ryegrass, Lolium multiflorum), kochia (Kochia scoparia), lambsquarters (Chenopodium album), oilseed rape (Brassica napus), pigweed (Amaranthus retroflexus), chamomile (scentless chamomile, Matricaria inodora), Russian thistle (Salsola kali), speedwell (bird's-eye speedwell, Veronica persica), barley, spring (spring barley, Hordeum vulgare), wheat, spring (spring wheat, Triticum aestivum), buckwheat, wild (wild buckwheat, Polygonum convolvulus), mustard, wild (wild mustard, Sinapis arvensis), oat, wild (wild oat, Avena fatua), radish, wild (wild radish, Raphanus raphanistrum), […]), barley, winter (winter barley, Hordeum vulgare), and wheat, winter (winter wheat, Triticum aestivum) were planted into a silt loam soil and treated preemergence with test chemicals formulated in a non-phytotoxic solvent mixture which included a surfactant. At the same time, these species were planted in pots containing Redi-Earth® planting medium (Scotts Company, 14111 Scottslawn Road, Marysville, Ohio 43041) comprising spaghnum peat moss, vermiculite, wetting agent and starter nutrients and treated with postemergence applications of the test chemicals formulated in the same manner. Plants ranged in height from 2 to 18 cm (1- to 4-leaf stage). Treated plants and controls were maintained in a controlled growth environment for 7 to 21 days after which time all species were compared to controls and visually evaluated. Plant response ratings, summarized in Table D, are based on a scale of 0 to 100 where 0 is no effect and 100 is complete control. A dash (-) response means no test result.

blackgrass = type: in vivo, Alopecurus myosuroides; details: for Plant response rating: Blackgrass, scale 0 to 100; for Plant response rating, Blackgrass: scale 0 to 100 (0 no effect, 100 complete control)
Procedure, shortened: (§2)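 Seeds sown in silt loam were sprayed preemergence with test chemicals in a non-phytotoxic solvent mixture with surfactant. Postemergence plants grown in peat/vermiculite medium were treated at 2–18 cm (1- to 4-leaf stage). After 7 to 21 days in a controlled environment, injury was rated visually versus controls, 0 (no effect) to 100 (complete control).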

galium = type: in vivo, Galium aparine; details: for Plant response rating: Galium, scale 0 to 100; for Plant response rating, Galium: scale 0 to 100 (0 no effect, 100 complete control)
Description: as §1

bluegrass = type: in vivo, Poa annua; details: for Plant response rating: Bluegrass, scale 0 to 100; for Plant response rating, Bluegrass: scale 0 to 100 (0 no effect, 100 complete control)
Description: as §1

bromegrass, downy = type: in vivo, Bromus tectorum; details: for Plant response rating: Bromegrass, Downy, scale 0 to 100; for Plant response rating, Bromegrass, Downy: scale 0 to 100 (0 no effect, 100 complete control)
Procedure, shortened: as §2

mustard, wild = type: in vivo, Sinapis arvensis; details: for Plant response rating: Mustard, Wild, scale 0 to 100; for Plant response rating, Mustard, Wild: scale 0 to 100 (0 no effect, 100 complete control)
Description: as §1

deadnettle = type: in vivo, Lamium amplexicaule; details: for Plant response rating: Deadnettle, scale 0 to 100; for Plant response rating, Deadnettle: scale 0 to 100 (0 no effect, 100 complete control)
Procedure, shortened: as §2

foxtail, green = type: in vivo, Setaria viridis; details: for Plant response rating: Foxtail, Green, scale 0 to 100; for Plant response rating, Foxtail, Green: scale 0 to 100 (0 no effect, 100 complete control)
Description: as §1

O=C1NCC(c2cc(F)c(F)c(F)c2)C1C(=O)Nc1ccccc1C(F)(F)F (racemic) [Compound 33]
Plant response rating (kochia; Postemergence, 16 g ai/ha): 0 | Plant response rating (kochia; Postemergence, 31 g ai/ha): 0 | Plant response rating (kochia; Postemergence, 62 g ai/ha): 0 | Plant response rating (kochia; Postemergence, 125 g ai/ha): 0 | Plant response rating (kochia; Postemergence, 250 g ai/ha): 10 | Plant response rating (blackgrass; Postemergence, 16 g ai/ha): 0 | Plant response rating (blackgrass; Postemergence, 31 g ai/ha): 0 | Plant response rating (blackgrass; Postemergence, 62 g ai/ha): 0 | Plant response rating (blackgrass; Postemergence, 125 g ai/ha): 0 | Plant response rating (blackgrass; Postemergence, 250 g ai/ha): 0 | Plant response rating (galium; Postemergence, 16 g ai/ha): 0 | Plant response rating (galium; Postemergence, 31 g ai/ha): 0 | Plant response rating (galium; Postemergence, 62 g ai/ha): 0 | Plant response rating (galium; Postemergence, 125 g ai/ha): 0 | Plant response rating (galium; Postemergence, 250 g ai/ha): 0 | Plant response rating (bluegrass; Postemergence, 16 g ai/ha): 0 | Plant response rating (bluegrass; Postemergence, 31 g ai/ha): 0 | Plant response rating (bluegrass; Postemergence, 62 g ai/ha): 0 | Plant response rating (bluegrass; Postemergence, 125 g ai/ha): 0 | Plant response rating (bluegrass; Postemergence, 250 g ai/ha): 0 | Plant response rating (bromegrass, downy; Postemergence, 16 g ai/ha): 0 | Plant response rating (bromegrass, downy; Postemergence, 31 g ai/ha): 0 | Plant response rating (bromegrass, downy; Postemergence, 62 g ai/ha): 0 | Plant response rating (bromegrass, downy; Postemergence, 125 g ai/ha): 0 | Plant response rating (bromegrass, downy; Postemergence, 250 g ai/ha): 0 | Plant response rating (mustard, wild; Postemergence, 16 g ai/ha): 0 | Plant response rating (mustard, wild; Postemergence, 31 g ai/ha): 0 | Plant response rating (mustard, wild; Postemergence, 62 g ai/ha): 0 | Plant response rating (mustard, wild; Postemergence, 125 g ai/ha): 0 | Plant response rating (mustard, wild; Postemergence, 250 g ai/ha): 0 | Plant response rating (deadnettle; Postemergence, 16 g ai/ha): 0 | Plant response rating (deadnettle; Postemergence, 31 g ai/ha): 0 | Plant response rating (deadnettle; Postemergence, 62 g ai/ha): 0 | Plant response rating (deadnettle; Postemergence, 125 g ai/ha): 0 | Plant response rating (deadnettle; Postemergence, 250 g ai/ha): 10 | Plant response rating (foxtail, green; Postemergence, 16 g ai/ha): 0 | Plant response rating (foxtail, green; Postemergence, 31 g ai/ha): 0 | Plant response rating (foxtail, green; Postemergence, 62 g ai/ha): 0 | Plant response rating (foxtail, green; Postemergence, 125 g ai/ha): 0 | Plant response rating (foxtail, green; Postemergence, 250 g ai/ha): 0

O=C1NCC(c2cc(F)c(F)c(F)c2)C1C(=O)Nc1ccccc1F (racemic) [Compound 34]
Plant response rating (kochia; Postemergence, 16 g ai/ha): 0 | Plant response rating (kochia; Postemergence, 62 g ai/ha): 0 | Plant response rating (kochia; Postemergence, 125 g ai/ha): 10 | Plant response rating (kochia; Postemergence, 250 g ai/ha): 25 | Plant response rating (blackgrass; Postemergence, 16 g ai/ha): 0 | Plant response rating (blackgrass; Postemergence, 31 g ai/ha): 0 | Plant response rating (blackgrass; Postemergence, 62 g ai/ha): 0 | Plant response rating (blackgrass; Postemergence, 125 g ai/ha): 0 | Plant response rating (blackgrass; Postemergence, 250 g ai/ha): 0 | Plant response rating (galium; Postemergence, 16 g ai/ha): 0 | Plant response rating (galium; Postemergence, 31 g ai/ha): 0 | Plant response rating (galium; Postemergence, 62 g ai/ha): 0 | Plant response rating (galium; Postemergence, 125 g ai/ha): 0 | Plant response rating (galium; Postemergence, 250 g ai/ha): 0 | Plant response rating (bluegrass; Postemergence, 16 g ai/ha): 0 | Plant response rating (bluegrass; Postemergence, 31 g ai/ha): 0 | Plant response rating (bluegrass; Postemergence, 62 g ai/ha): 0 | Plant response rating (bluegrass; Postemergence, 125 g ai/ha): 0 | Plant response rating (bluegrass; Postemergence, 250 g ai/ha): 0 | Plant response rating (bromegrass, downy; Postemergence, 16 g ai/ha): 0 | Plant response rating (bromegrass, downy; Postemergence, 31 g ai/ha): 0 | Plant response rating (bromegrass, downy; Postemergence, 62 g ai/ha): 0 | Plant response rating (bromegrass, downy; Postemergence, 125 g ai/ha): 0 | Plant response rating (bromegrass, downy; Postemergence, 250 g ai/ha): 0 | Plant response rating (mustard, wild; Postemergence, 16 g ai/ha): 0 | Plant response rating (mustard, wild; Postemergence, 31 g ai/ha): 0 | Plant response rating (mustard, wild; Postemergence, 62 g ai/ha): 0 | Plant response rating (mustard, wild; Postemergence, 125 g ai/ha): 10 | Plant response rating (mustard, wild; Postemergence, 250 g ai/ha): 20 | Plant response rating (deadnettle; Postemergence, 16 g ai/ha): 0 | Plant response rating (deadnettle; Postemergence, 31 g ai/ha): 0 | Plant response rating (deadnettle; Postemergence, 62 g ai/ha): 0 | Plant response rating (deadnettle; Postemergence, 125 g ai/ha): 0 | Plant response rating (deadnettle; Postemergence, 250 g ai/ha): 0 | Plant response rating (foxtail, green; Postemergence, 16 g ai/ha): 0 | Plant response rating (foxtail, green; Postemergence, 31 g ai/ha): 0 | Plant response rating (foxtail, green; Postemergence, 62 g ai/ha): 0 | Plant response rating (foxtail, green; Postemergence, 125 g ai/ha): 0 | Plant response rating (foxtail, green; Postemergence, 250 g ai/ha): 0

O=C1NCC(c2cccc(C(F)(F)F)c2)C1C(=O)Nc1ccc(F)cc1F (racemic) [Compound 207]
Plant response rating, Kochia (kochia; Preemergence, 31 g ai/ha): 10 | Plant response rating, Kochia (kochia; Preemergence, 62 g ai/ha): 10 | Plant response rating, Kochia (kochia; Preemergence, 125 g ai/ha): 10 | Plant response rating (kochia; Preemergence, 250 g ai/ha): 60 | Plant response rating, Blackgrass (blackgrass; Preemergence, 31 g ai/ha): 0 | Plant response rating, Blackgrass (blackgrass; Preemergence, 62 g ai/ha): 5 | Plant response rating, Blackgrass (blackgrass; Preemergence, 125 g ai/ha): 20 | Plant response rating (blackgrass; Preemergence, 250 g ai/ha): 75 | Plant response rating, Galium (galium; Preemergence, 31 g ai/ha): 55 | Plant response rating, Galium (galium; Preemergence, 62 g ai/ha): 60 | Plant response rating, Galium (galium; Preemergence, 125 g ai/ha): 45 | Plant response rating (galium; Preemergence, 250 g ai/ha): 20 | Plant response rating, Bluegrass (bluegrass; Preemergence, 31 g ai/ha): 0 | Plant response rating, Bluegrass (bluegrass; Preemergence, 62 g ai/ha): 15 | Plant response rating, Bluegrass (bluegrass; Preemergence, 125 g ai/ha): 15 | Plant response rating (bluegrass; Preemergence, 250 g ai/ha): 30 | Plant response rating, Bromegrass, Downy (bromegrass, downy; Preemergence, 31 g ai/ha): 0 | Plant response rating, Bromegrass, Downy (bromegrass, downy; Preemergence, 62 g ai/ha): 15 | Plant response rating, Bromegrass, Downy (bromegrass, downy; Preemergence, 125 g ai/ha): 15 | Plant response rating (bromegrass, downy; Preemergence, 250 g ai/ha): 15 | Plant response rating, Mustard, Wild (mustard, wild; Preemergence, 31 g ai/ha): 10 | Plant response rating, Mustard, Wild (mustard, wild; Preemergence, 62 g ai/ha): 25 | Plant response rating, Mustard, Wild (mustard, wild; Preemergence, 125 g ai/ha): 25 | Plant response rating (mustard, wild; Preemergence, 250 g ai/ha): 30 | Plant response rating, Deadnettle (deadnettle; Preemergence, 31 g ai/ha): 0 | Plant response rating, Deadnettle (deadnettle; Preemergence, 62 g ai/ha): 0 | Plant response rating, Deadnettle (deadnettle; Preemergence, 125 g ai/ha): 20 | Plant response rating (deadnettle; Preemergence, 250 g ai/ha): 20 | Plant response rating, Foxtail, Green (foxtail, green; Preemergence, 31 g ai/ha): 15 | Plant response rating, Foxtail, Green (foxtail, green; Preemergence, 62 g ai/ha): 60 | Plant response rating, Foxtail, Green (foxtail, green; Preemergence, 125 g ai/ha): 75 | Plant response rating (foxtail, green; Preemergence, 250 g ai/ha): 90

Reference: patent publication US10294202B2, “Pyrrolidinones as herbicides” (FMC Corporation, priority 2013, dated 2019)
